Results: patent publication EP4291552B1, “MODULATORS OF COMPLEX I” (Boehringer Ingelheim International GmbH, priority 2021, dated 2022)

Each compound was assayed on mice neuroblastoma cells (HT-22) (assay: Determination of Cellular Protection (HT22)). Conditions: Mus musculus, HT-22, 16 h, read-out: HT22 IC50.

Compound	IC50 [nM]
CC1COC/C(=C2/C(=O)N(C3CCOCC3)c3ccc(N4C(C)CCC4C)cc32)N1 (stereo not shown) [Compound 93]	101
CC(C)N1C(=O)/C(=C2/COCCN2)c2cc(NC3CCCC3)ccc21 [Compound 94]	27
CC(C)C(C)Nc1ccc2c(c1)/C(=C1\COCCN1)C(=O)N2C(C)C (stereo not shown) [Compound 95]	6
CC(C)N1CCC(Nc2ccc3c(c2)/C(=C2\COCCN2)C(=O)N3C(C)C)CC1 [Compound 96]	41
CC(Nc1ccc2c(c1)/C(=C1\COCCN1)C(=O)N2C(C)C)C1CC1 (stereo not shown) [Compound 97]	17
CC(C)N1C(=O)/C(=C2/COCCN2)c2cc(NC3COC3)ccc21 [Compound 98]	166
COCC(C)Nc1ccc2c(c1)/C(=C1\COCCN1)C(=O)N2C1CCOCC1 (stereo not shown) [Compound 99]	163
CC(Nc1ccc2c(c1)/C(=C1\COCCN1)C(=O)N2C1CCOCC1)c1cccnc1 (stereo not shown) [Compound 100]	397
CC1CCCC1Nc1ccc2c(c1)/C(=C1\COCCN1)C(=O)N2C1CCOCC1 (stereo not shown) [Compound 102]	3
O=C1/C(=C2/COCCN2)c2cc(NCC3CC3)ccc2N1C1CCOCC1 [Compound 103]	105
CN(C)c1ccc2c(c1)/C(=C1\CCCCCN1)C(=O)N2C [Compound 105]	91
CN(C)c1ccc2c(c1)/C(=C1/NCCN1c1ccccc1)C(=O)N2C [Compound 106]	142
CN1C(=O)/C(=C2/CCOCCN2)c2cc(N3CCCC3)ccc21 [Compound 107]	69
CN(C)c1ccc2c(c1)/C(=C1\CCN(C(=O)OCc3ccccc3)CCN1)C(=O)N2C [Compound 108]	128
CC(C)N1CCN/C(=C2\C(=O)N(C)c3ccc(N4CCCC4)cc32)CC1 [Compound 110]	19
CC(=O)N1CCN/C(=C2\C(=O)N(C3CCOCC3)c3ccc(NC(C)C)cc32)C1 [Compound 111]	249
O=C1C(=C2CCOCC2)c2cc(N3CCCC3)ccc2N1C1CCOCC1 [Compound 112]	86

Compound	IC50 [nM]
CC(C)N1C(=O)/C(=C2/CCCCN2)c2cc(N(C3CCC3)C3CCC3)ccc21 [Compound 113]	18
CC(C)Nc1ccc2c(c1)/C(=C1\CN(C3COC3)CCN1)C(=O)N2C(C)C [Compound 114]	104
CC(C)Nc1ccc2c(c1)/C(=C1\CCCN1C)C(=O)N2C(C)C [Compound 115]	30
CC(C)N1C(=O)C(=C2CCOCC2)c2cc(NC3CCCC3)ccc21 [Compound 116]	9
O=C1/C(=C2/COCCN2)c2cc(N3CCCC3)ccc2N1C1CCOCC1 [Compound 117]	22
CCOC(=O)N1CCC(N2C(=O)/C(=C3/COCCN3)c3cc(N4CCCC4)ccc32)CC1 [Compound 118]	33
COCC(C)N1C(=O)/C(=C2/COCCN2)c2cc(N3CCC(O)C3)ccc21 (stereo not shown) [Compound 119]	439
O=C1/C(=C2/CCOCCN2)c2cc(NC3CCC3)ccc2N1C1CCOCC1 [Compound 120]	51
O=C1/C(=C2/CCN(C3COC3)CCN2)c2cc(N3CCCC3)ccc2N1C1CCOCC1 [Compound 121]	192
CC(C)N1CCC(N2C(=O)/C(=C3/COCCN3)c3cc(N(C(C)C)C(C)C)ccc32)CC1 [Compound 122]	944
CC1CCCC1Nc1ccc2c(c1)/C(=C1\COCCN1)C(=O)N2C(C)C (stereo not shown) [Compound 124]	15
CC1OCCC1Nc1ccc2c(c1)/C(=C1\COCCN1)C(=O)N2C(C)C (stereo not shown) [Compound 125]	112
CC(Nc1ccc2c(c1)/C(=C1\COCCN1)C(=O)N2C(C)C)c1cncnc1 (stereo not shown) [Compound 126]	179
CC(C)N1C(=O)/C(=C2/COCCN2)c2cc(NCC3(C)COC3)ccc21 [Compound 127]	176
CC(C)N1C(=O)/C(=C2/CCOCCN2)c2cc(N3C(C)CCC3C)ccc21 (stereo not shown) [Compound 128]	47
CC(C)N1C(=O)/C(=C2/CCOCCN2)c2cc(N3CCCC3)ccc21 [Compound 129]	23
CC(C)N1C(=O)/C(=C2/COCCN2)c2cc(N3CCCC3)ccc21 [Compound 130]	45
